Test [1] deals with T1, Transcription intermediary factor 1-alpha (Homo sapiens, UniProt O15164).
T1 sequence (O15164 whole entry): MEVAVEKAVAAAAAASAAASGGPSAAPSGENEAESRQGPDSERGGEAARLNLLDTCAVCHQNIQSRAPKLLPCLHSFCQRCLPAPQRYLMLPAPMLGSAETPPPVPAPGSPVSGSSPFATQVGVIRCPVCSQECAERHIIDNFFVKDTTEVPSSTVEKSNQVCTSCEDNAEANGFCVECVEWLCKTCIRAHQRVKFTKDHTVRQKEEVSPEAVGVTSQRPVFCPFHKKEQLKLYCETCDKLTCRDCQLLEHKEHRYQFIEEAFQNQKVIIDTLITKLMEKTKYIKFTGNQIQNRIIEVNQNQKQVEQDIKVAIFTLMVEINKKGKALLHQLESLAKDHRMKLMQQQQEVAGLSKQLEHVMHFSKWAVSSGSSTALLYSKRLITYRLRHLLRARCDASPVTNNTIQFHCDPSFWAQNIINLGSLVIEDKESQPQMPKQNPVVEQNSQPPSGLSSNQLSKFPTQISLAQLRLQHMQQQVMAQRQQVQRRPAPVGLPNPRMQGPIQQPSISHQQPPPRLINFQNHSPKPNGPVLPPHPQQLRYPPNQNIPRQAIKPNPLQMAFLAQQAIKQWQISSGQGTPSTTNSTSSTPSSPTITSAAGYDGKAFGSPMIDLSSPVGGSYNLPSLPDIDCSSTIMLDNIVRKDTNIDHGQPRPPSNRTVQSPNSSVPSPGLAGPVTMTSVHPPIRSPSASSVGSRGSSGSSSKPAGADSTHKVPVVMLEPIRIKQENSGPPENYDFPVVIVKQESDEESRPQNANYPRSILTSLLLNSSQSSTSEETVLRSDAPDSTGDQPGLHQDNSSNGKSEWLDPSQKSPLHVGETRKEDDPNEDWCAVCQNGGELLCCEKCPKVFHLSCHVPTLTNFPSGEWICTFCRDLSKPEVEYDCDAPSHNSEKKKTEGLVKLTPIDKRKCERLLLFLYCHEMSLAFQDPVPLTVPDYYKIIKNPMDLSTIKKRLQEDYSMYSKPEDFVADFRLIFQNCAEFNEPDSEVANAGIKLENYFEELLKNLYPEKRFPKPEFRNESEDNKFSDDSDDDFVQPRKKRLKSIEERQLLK
In words: Inhibition of N-terminal His6-SUMO-1-tagged recombinant human TRIM24 bromodomain expressed in Escherichia coli BL21(DE3)-R3-pRARE2 cells by Alpha Screen assay. For orientation: Alpha assays give light when donor and acceptor beads are brought close together.

In test [2] the target is T2, Bromodomain-containing protein 1 (Homo sapiens, UniProt O95696).
T2 sequence (O95696 whole entry): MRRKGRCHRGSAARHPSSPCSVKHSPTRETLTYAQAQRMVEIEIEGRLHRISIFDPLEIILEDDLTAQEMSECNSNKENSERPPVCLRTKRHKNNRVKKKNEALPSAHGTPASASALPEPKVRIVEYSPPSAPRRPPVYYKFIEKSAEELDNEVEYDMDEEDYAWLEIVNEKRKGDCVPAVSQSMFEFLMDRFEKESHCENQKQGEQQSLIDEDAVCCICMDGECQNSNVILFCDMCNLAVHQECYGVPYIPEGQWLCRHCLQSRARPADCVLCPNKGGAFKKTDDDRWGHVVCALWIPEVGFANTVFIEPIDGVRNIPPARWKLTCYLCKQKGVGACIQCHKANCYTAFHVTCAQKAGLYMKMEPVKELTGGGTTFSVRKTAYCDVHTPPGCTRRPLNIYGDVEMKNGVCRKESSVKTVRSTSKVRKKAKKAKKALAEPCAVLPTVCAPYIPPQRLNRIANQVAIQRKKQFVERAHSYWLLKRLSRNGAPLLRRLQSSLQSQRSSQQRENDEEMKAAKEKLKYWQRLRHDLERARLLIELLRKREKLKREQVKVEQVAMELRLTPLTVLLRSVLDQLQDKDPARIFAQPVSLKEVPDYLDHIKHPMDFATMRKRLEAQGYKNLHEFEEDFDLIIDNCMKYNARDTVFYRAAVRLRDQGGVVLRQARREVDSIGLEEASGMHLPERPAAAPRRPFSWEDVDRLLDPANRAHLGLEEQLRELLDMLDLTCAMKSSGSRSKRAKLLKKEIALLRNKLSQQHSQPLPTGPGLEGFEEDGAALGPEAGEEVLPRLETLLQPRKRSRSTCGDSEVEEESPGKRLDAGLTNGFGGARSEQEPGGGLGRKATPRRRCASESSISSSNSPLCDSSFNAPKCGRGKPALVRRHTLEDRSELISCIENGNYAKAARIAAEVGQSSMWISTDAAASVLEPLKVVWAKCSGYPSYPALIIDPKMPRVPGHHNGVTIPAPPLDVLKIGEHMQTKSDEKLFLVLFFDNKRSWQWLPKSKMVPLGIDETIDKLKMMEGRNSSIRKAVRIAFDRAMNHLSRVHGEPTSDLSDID
In words: Inhibition of BRPF2 BRD1 (unknown origin) by Alpha Screen assay.

Test [3] concerns the target T1, Transcription intermediary factor 1-alpha. Description: Binding affinity to N-terminal His6-SUMO-1-tagged recombinant human TRIM24 bromodomain expressed in Escherichia coli BL21(DE3)-R3-pRARE2 cells by isothermal titration calorimetry. A general note: ITC needs no label: the signal is the heat of the interaction.
Test [4] concerns the target T2, Bromodomain-containing protein 1. Description: Binding affinity to BRPF2 BRD1 (unknown origin) by isothermal titration calorimetry.
The next test relates to MCF7. Description: Cytotoxicity against human MCF7 cells at 5x10'-5 M to 8x10'-8 M after 72 hrs by CellTiter-Glo assay. The format is functional, cell-based.
The next test deals with JJN-3. Description: Cytotoxicity against human JJN-3 cells at 5x10'-5 M to 8x10'-8 M after 72 hrs by CellTiter-Glo assay. The format is functional, cell-based.
The test system of a further test is RKO. In words: Cytotoxicity against human RKO cells at 5x10'-5 M to 8x10'-8 M after 72 hrs by CellTiter-Glo assay. The format is functional, cell-based.
The nature of test [5]: Cytotoxicity against human MM1S cells after 72 hrs by CellTiter-Glo assay. Format: functional. The following applies: MM1.S. A general note: Cellular ATP, detected with luciferase, serves as a proxy for viable cell number.

The values that follow come from ChEMBL document CHEMBL3769336, “Discovery of a Chemical Tool Inhibitor Targeting the Bromodomains of TRIM24 and BRPF” (J Med Chem, 2016).

The source made the active and inactive calls. The rule behind the calls is not given here. Some results are limits rather than exact numbers.

Usually IC50 stands for the concentration that inhibits the measured activity by half. Broadly, the Kd is the constant that tells how readily two partners part at equilibrium. Usually GI50 stands for the concentration that inhibits growth by half. The low end stands for more potent growth inhibition, the high end for less potent growth inhibition.

`COc1ccc(Oc2cc3c(cc2NS(=O)(=O)c2ccc(OC)c(OC)c2)n(C)c(=O)n3C)cc1`: the figures for the IC50 in test [1] and in test [2] were 430 nM and 1750 nM, respectively. Also, the Kd in test [3] worked out at 222 nM; in test [4] it was 1130 nM. The outcome in the test with MCF7, with JJN-3 and in the test on RKO was inactive. The GI50 in test [5] is over 10 µM.
